A word on the IC50: it is the point on the concentration scale where inhibition reaches its midpoint. By HC50 is commonly meant the concentration giving 50% haemolysis. Low values mean more damage to red cells, high ones less damage to red cells.

Where only a bound is given, the exact number is not on record here.

For data set [1], the system named is Caco-2 cells. The data set is described as follows: Real-time cell electronic sensing (RT-CES) on Caco-2 cells. In kind it is cell-based, human. The note with it: for IC50: up to 8 h treatment, impedance cell index; for toxicity by RT-CES, result in words: prolonged exposition time (up to 8 h) versus 30 min MTT; for concentration up to which non-toxic (RT-CES): up to 8 h. The procedure:
(§1) Caco-2 cell line was obtained from the European Collection of Cell Cultures (ECACC). Cells were grown in plastic cell culture flasks in Dulbecco’s Modified Eagle’s Medium supplemented with 3.7 g/L NaHCO3, 10% (v/v) heat-inactivated fetal bovine serum (FBS), 1% (v/v) non-essential amino acids solution, 1% (v/v) L-glutamine, 100 IU/mL penicillin, and 100 µg/mL streptomycin at 37 °C in an atmosphere of 5% CO2. The cells were routinely maintained by regular passaging. For cytotoxic and transport experiments, cells were used between passage numbers 20 and 40. The culture media were replaced with fresh media in every 72 h.
Real-time cell electronic sensing (RT-CES) is a label-free technique for dynamic monitoring of living cells. The xCELLigence system (Roche, Basel, Switzerland) utilizes an electronic readout called impedance to non-invasively quantify adherence cell proliferation and viability. E-plates (Roche) contain gold microelectronic sensor arrays. The interaction between cells and the electrode generates impedance response that correlates linearly with cell index reflecting cell number, adherence and cell growth. This method is more sensitive and informative than colorimetric end-point assays to test pharmaceutical excipients.
The E-plate was coated with 0.2% rat tail collagen–DW solution for 20 min at 37 °C. Culture media (60 μL) was added to each well for background readings than 100 µL Caco-2 cell suspension was dispensed at the density of 1.5 × 10^4 cells/well. The cells were grown for 2 days. The medium was changed to excipients solutions and the cells in the E-plate were kept in an incubator at 37 °C for 8 h and monitored every 5 min.
The cell index at each time point was defined as (Rn − Rb)/15, where Rn is the cell-electrode impedance of the well when it contains cells and Rb is the background impedance of the well with the media alone.

Data set [2] deals with Caco-2 cells. The data set is described as follows: MTT cell viability assay on Caco-2 cells. In kind it is cell-based, human. The note with it: for IC50: 30 min incubation at 37 °C in PBS, mean ± SD; for concentration up to which no toxic effect (MTT): 30 min. The procedure:
as §1
The MTT assay was performed on Caco-2 cells. The cells were seeded in 96 well plates until the cell monolayer become confluent. The medium was changed once. After one week the medium was removed, the cells were washed with PBS and exposed to increasing concentrations of α-CDs dissolved in phosphate buffer saline (PBS). Cells were incubated for 30 min on 37 °C. Control groups were processed equally and incubated without CD simultaneously. After treatment MTT dye (3-(4,5-dimethylthiazol-2-yl))-2,5-diphenyltetrazolium bromide, 5 mg/mL) was applied to each well for 3 h. MTT solution was removed and isopropanol-hydrochloric acid (25:1) was added to dissolve the formed formazan crystals. The absorbance was measured at 570 nm against a 690 nm reference with a FLUOstar OPTIMA Microplate Reader. Cell viability was expressed as the percentage of untreated control.
In general terms: Formazan colour is commonly taken as a measure of viable cells.

The nature of data set [3]: Solubility of the samples in isotonic PBS. The note with it: isotonic phosphate buffered saline (PBS). In kind it is physicochemical. The procedure: α-Cyclodextrin derivatives were generously offered by Cyclolab Ltd. (Cyclodextrin Research & Development Laboratory, Budapest, Hungary). […] We investigated each α-CD in 7 different concentrations: 0.01; 0.1; 1; 10; 25; 50 and 100 mM, with the exception of TRIMEA, which was not soluble above 30 mM. The solid samples were dissolved in isotonic phosphate buffered saline (PBS), purchased from Sigma–Aldrich (Budapest, Hungary) (Table 2.)

Data set [4] concerns human erythrocytes. The data set is described as follows: Hemolysis test on human red blood cells. The class given is cell-based. The note with it: for HC50: PBS pH 7.2, 37 °C, mean ± SD; for HC50 / concentration up to which not hemolytic: 10 min. The procedure:
Hemolysis test was performed on fresh human blood. Erythrocytes were separated from citrated blood by centrifugation at 2500× g for 10 min.; washed three times with PBS and resuspended in the same solution. Aliquots of the cell suspension with the respective red blood cell number of 5 × 10^7 were added to the buffer solution (PBS pH 7.2) containing increasing concentrations of the samples investigated in the study. After mixing them gently, each solution was incubated at 37 °C for 10 min and then centrifuged at 5000× g. Finally, the absorbance of the hemoglobin released into the supernatant was measured at 540 nm with a FLUOstar OPTIMA Microplate Reader. The percentage of hemolysis was expressed as the ratio of hemoglobin in the supernatant of the sample solutions related to the hemoglobin concentration after the complete hemolysis of erythrocytes in water. The dose-response curve was determined, and the concentration inducing hemolysis in 50% of the erythrocyte population (HC50) was subsequently calculated.

In the case of `COC[C@H]1O[C@@H]2O[C@@H]3[C@@H](OC)[C@@H](OC)[C@@H](O[C@@H]4[C@@H](OC)[C@@H](OC)[C@@H](O[C@@H]5[C@@H](OC)[C@@H](OC)[C@@H](O[C@@H]6[C@@H](OC)[C@@H](OC)[C@@H](O[C@@H]7[C@@H](OC)[C@@H](OC)[C@@H](O[C@@H]1[C@@H](OC)[C@H]2OC)O[C@@H]7COC)O[C@@H]6COC)O[C@@H]5COC)O[C@@H]4COC)O[C@@H]3COC` [TRIMEA, hexakis-(2,3,6-tri-O-methyl)-α-CD], the IC50 in data set [1] is greater than 1 mM; in data set [2], 1.8 ± 0.8 mM. Also, the solubility limit in data set [3] is listed as no more than 30 mM. In data set [4], this compound showed an HC50 of 1.9 ± 0.01 mM.
Regarding sulfated α-CD, the “toxicity by RT-CES, result in words” value in data set [1] was “toxic when the exposition time was prolonged”. Besides, in data set [2], the “concentration up to which no toxic effect (MTT)” value is greater than 100000 µM and the IC50 was greater than 100 mM. For the same compound, in data set [4], the HC50 is recorded as greater than 100 mM.
Regarding succinylated α-CD [SuACD], the IC50 in data set [1] was greater than 1 mM; in data set [2], 19 ± 8.8 mM. This compound also came in with an HC50 in data set [4] of 9.6 ± 0.03 mM.
Turning to phosphated α-CD sodium salt, the IC50 in data set [2] was 7.8 ± 8.6 mM. In data set [4], the “hemolysis, result in words” value is given as “did not result in hemolysis” and the HC50 is on record as greater than 100 mM.
Turning to `OC[C@H]1O[C@@H]2O[C@H]3[C@H](O)[C@@H](O)[C@@H](O[C@H]4[C@H](O)[C@@H](O)[C@@H](O[C@H]5[C@H](O)[C@@H](O)[C@@H](O[C@H]6[C@H](O)[C@@H](O)[C@@H](O[C@H]7[C@H](O)[C@@H](O)[C@@H](O[C@H]1[C@H](O)[C@H]2O)O[C@@H]7CO)O[C@@H]6CO)O[C@@H]5CO)O[C@@H]4CO)O[C@@H]3CO` [native, α-cyclodextrin], the IC50 in data set [1] (Homo sapiens) was greater than 25 mM; in data set [2] (Homo sapiens, 0.5 h), 46.1 ± 9.2 mM. Also, the HC50 in data set [4] came to 16.0 ± 0.02 mM; in data set [4] (listed as Native α-CD), 16 mM.
With “carboxymethylated α-CD sodium salt [CMACD]”, the “toxicity by RT-CES, result in words” value in data set [1] is given as “toxic when the exposition time was prolonged”. For the same compound, in data set [2], the “concentration up to which no toxic effect (MTT)” value was greater than 100000 µM and the IC50 is greater than 100 mM. For the same compound, the HC50 in data set [4] is on record as greater than 100 mM. Further, the HC50 in data set [4] (listed as carboxymethylated) is on record as greater than 100 mM.
The compound randomly methylated α-CD [RAMEA] registered an IC50 in data set [2] of 78.6 ± 15.8 mM. This compound also showed an HC50 in data set [4] of 15.5 ± 0.01 mM.
For (2-hydroxy) propyl α-CD [HPACD], in data set [1], the “concentration up to which non-toxic (RT-CES)” value was greater than 100000 µM and the IC50 was greater than 100 mM. Besides, in data set [2], the “concentration up to which no toxic effect (MTT)” value was greater than 100000 µM and the IC50 was greater than 100 mM. Besides, in data set [4], the “concentration up to which not hemolytic” value was greater than 100000 µM and the HC50 is reported as greater than 100 mM. Further, in data set [4] (listed as Hydroxypropyl), the HC50 is on record as greater than 100 mM.
For acetylated α-CD [AcACD], in data set [1], the “concentration up to which non-toxic (RT-CES)” value is greater than 100000 µM and the IC50 was greater than 100 mM. Moreover, in data set [2], the “concentration up to which no toxic effect (MTT)” value is greater than 100000 µM and the IC50 is greater than 100 mM. In addition, in data set [4], the “concentration up to which not hemolytic” value is greater than 100000 µM and the HC50 is recorded as greater than 100 mM. The compound also registered an HC50 in data set [4] (listed as acetyl) greater than 100 mM.

For the origin of these results see PMC6332255, “Evaluation of the Cytotoxicity of α-Cyclodextrin Derivatives on the Caco-2 Cell Line and Human Erythrocytes” (Molecules, 2015).
